The values below come from paper PMC9186362, “Design and biological evaluation of substituted 5,7-dihydro-6H-indolo[2,3-c]quinolin-6-one as novel selective Haspin inhibitors” (Journal of Enzyme Inhibition and Medicinal Chemistry, 2022).

Series [1] addresses RnDYRK1A (Rattus norvegicus, UniProt Q63470). As to the kind of experiment: ADP-Glo kinase assay. In kind it is biochemical, Rattus norvegicus (Rn). The following applies: for remaining activity: mean n = 2, % of maximum activity of DMSO control, read-out: % Residual activity at 1 μM DYRK1A; for Selectivity index DYRK/Haspin: IC50 DYRK1A/IC50 Haspin; for IC50: dose-response curve, each point in duplicate, read-out: Kinase inhibition (IC50) DYRK1A. On the procedure:
(§1) Kinase activities were determined using the ADP-Glo methodology (ADP-Glo Kinase Assay; Promega) according to the assay described by Nguyen et al.[32] except for MmCLK1. The later was assayed in the following buffer: 10 mM MgCl2, 1 mM EGTA, 1 mM DTT, 25 mM Tris-HCl pH 7.5, 50 µg/ml heparin, 0.15 mg/ml BSA, with 0.027 µg/µl of the following peptide: GRSRSRSRSRSR as substrate.

Series [2] deals with MmCLK1 (Mus musculus, UniProt P22518). Nature of the series: ADP-Glo kinase assay. In kind it is biochemical, Mus musculus (Mm). The note with it: for remaining activity at 1 µM: mean n = 2, % of maximum activity of DMSO control, read-out: % Residual activity at 1 μM CLK1; for Selectivity index CLK1/Haspin: IC50 CLK1/IC50 Haspin; for IC50: dose-response curve, each point in duplicate, read-out: Kinase inhibition (IC50) CLK1. On the procedure:
as §1
(In general: In ADP-Glo the light output rises with the ADP produced.)

For series [3], the target named is T1, HsHaspin (Homo sapiens, UniProt Q8TF76).
T1 sequence (Q8TF76 1-798): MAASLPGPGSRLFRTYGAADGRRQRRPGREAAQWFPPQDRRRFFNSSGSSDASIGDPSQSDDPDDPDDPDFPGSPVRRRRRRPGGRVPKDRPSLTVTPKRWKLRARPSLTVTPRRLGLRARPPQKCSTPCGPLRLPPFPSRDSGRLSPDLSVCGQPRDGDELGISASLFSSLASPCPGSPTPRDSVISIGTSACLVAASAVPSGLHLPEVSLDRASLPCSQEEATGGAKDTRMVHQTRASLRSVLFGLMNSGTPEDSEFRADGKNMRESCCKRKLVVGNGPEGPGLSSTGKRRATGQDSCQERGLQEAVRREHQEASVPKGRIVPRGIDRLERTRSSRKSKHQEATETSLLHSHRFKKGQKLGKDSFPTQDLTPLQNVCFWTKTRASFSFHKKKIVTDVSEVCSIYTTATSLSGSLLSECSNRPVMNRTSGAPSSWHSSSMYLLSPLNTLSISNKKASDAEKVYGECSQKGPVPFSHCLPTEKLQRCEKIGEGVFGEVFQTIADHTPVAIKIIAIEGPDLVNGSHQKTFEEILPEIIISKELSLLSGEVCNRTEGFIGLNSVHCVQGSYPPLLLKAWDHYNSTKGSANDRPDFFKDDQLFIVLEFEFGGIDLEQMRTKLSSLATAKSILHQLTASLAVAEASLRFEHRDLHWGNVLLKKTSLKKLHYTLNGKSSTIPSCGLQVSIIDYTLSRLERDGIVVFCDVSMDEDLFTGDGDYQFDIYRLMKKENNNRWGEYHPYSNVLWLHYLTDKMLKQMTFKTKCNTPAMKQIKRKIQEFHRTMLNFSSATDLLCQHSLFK
As to the kind of experiment: ADP-Glo kinase assay. The note with it: for remaining activity at 1 µM: mean n = 2, % of maximum activity of DMSO control, read-out: % Residual activity at 1 μM Haspin; for IC50: dose-response curve, each point in duplicate, read-out: Kinase inhibition (IC50) Haspin. In kind it is biochemical, Homo sapiens (Hs). On the procedure:
as §1

The target in series [4] is HsGSK3β (Homo sapiens, UniProt P49841). As to the kind of experiment: ADP-Glo kinase assay. In kind it is biochemical, Homo sapiens (Hs). The following applies: mean n = 2, % of maximum activity of DMSO control, read-out: % Residual activity at 1 μM GSK3β. The procedure:
as §1

Series [5] addresses HsCdk5/p25 (Homo sapiens, UniProt Q00535). As to the kind of experiment: ADP-Glo kinase assay. The following applies: mean n = 2, % of maximum activity of DMSO control, read-out: % Residual activity at 1 μM CDK5. In kind it is biochemical, Homo sapiens (Hs). On the procedure:
as §1

The target of series [6] is HsPIM1 (Homo sapiens, UniProt P11309). Nature of the series: ADP-Glo kinase assay. In kind it is biochemical, Homo sapiens (Hs). The following applies: mean n = 2, % of maximum activity of DMSO control, read-out: % Residual activity at 1 μM PIM1. On the procedure:
as §1

Series [7] concerns the target HsCdk9/Cyc E (Homo sapiens, UniProt P50750). Nature of the series: ADP-Glo kinase assay. In kind it is biochemical, Homo sapiens (Hs). The note with it: mean n = 2, % of maximum activity of DMSO control, read-out: % Residual activity at 1 μM CDK9. The procedure:
as §1

Series [8] has as its target HsCdk2/Cyc A (Homo sapiens, UniProt P24941). Nature of the series: ADP-Glo kinase assay. In kind it is biochemical, Homo sapiens (Hs). The note with it: mean n = 2, % of maximum activity of DMSO control, read-out: % Residual activity at 1 μM CDK2. On the procedure: as §1

Molecules are shown by their SMILES.

For orientation: melting point means the temperature, or range, at which the solid turns liquid. A word on the IC50: it is the concentration at which inhibition is half-maximal.

Chain of HsCdk5/p25 (Q00535 whole entry): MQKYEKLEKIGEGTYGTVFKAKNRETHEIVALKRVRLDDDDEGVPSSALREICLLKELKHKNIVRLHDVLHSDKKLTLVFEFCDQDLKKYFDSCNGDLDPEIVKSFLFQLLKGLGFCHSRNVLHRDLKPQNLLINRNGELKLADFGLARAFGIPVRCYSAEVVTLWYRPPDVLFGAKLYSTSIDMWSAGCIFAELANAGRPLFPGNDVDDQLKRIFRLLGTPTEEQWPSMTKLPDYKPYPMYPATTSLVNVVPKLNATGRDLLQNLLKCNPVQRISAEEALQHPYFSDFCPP
Chain of HsCdk5/p25 (Q15078 99-307 partner limits assumed): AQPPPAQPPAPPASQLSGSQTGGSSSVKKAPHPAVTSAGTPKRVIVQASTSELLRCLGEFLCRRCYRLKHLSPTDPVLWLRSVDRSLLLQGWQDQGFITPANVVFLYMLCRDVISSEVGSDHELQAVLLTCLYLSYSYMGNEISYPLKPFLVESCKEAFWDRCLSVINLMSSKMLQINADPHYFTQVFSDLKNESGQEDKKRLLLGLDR
Chain of MmCLK1 (P22518 whole entry): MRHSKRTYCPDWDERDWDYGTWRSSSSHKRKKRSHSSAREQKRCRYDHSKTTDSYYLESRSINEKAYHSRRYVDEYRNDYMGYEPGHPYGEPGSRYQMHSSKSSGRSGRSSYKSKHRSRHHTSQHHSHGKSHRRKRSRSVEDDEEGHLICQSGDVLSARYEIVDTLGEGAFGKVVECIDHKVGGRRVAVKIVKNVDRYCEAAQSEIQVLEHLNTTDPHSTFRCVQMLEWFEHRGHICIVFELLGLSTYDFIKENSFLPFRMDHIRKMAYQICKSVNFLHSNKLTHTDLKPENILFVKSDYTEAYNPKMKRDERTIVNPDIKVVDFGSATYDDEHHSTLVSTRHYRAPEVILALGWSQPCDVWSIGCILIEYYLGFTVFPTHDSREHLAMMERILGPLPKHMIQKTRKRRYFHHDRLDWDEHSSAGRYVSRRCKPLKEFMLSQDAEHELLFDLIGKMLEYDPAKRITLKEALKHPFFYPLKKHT
Chain of HsCdk9/Cyc E (P50750 whole entry): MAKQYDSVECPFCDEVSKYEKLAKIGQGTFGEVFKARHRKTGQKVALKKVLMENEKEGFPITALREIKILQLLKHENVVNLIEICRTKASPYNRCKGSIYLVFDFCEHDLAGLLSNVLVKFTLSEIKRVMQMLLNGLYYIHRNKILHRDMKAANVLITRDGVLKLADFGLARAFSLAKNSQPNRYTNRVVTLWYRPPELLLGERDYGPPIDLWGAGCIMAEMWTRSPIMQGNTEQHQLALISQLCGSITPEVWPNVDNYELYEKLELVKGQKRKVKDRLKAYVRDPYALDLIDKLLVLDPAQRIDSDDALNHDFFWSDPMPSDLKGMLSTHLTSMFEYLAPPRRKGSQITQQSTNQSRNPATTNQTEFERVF
Chain of HsCdk9/Cyc E (O60563 whole entry partner): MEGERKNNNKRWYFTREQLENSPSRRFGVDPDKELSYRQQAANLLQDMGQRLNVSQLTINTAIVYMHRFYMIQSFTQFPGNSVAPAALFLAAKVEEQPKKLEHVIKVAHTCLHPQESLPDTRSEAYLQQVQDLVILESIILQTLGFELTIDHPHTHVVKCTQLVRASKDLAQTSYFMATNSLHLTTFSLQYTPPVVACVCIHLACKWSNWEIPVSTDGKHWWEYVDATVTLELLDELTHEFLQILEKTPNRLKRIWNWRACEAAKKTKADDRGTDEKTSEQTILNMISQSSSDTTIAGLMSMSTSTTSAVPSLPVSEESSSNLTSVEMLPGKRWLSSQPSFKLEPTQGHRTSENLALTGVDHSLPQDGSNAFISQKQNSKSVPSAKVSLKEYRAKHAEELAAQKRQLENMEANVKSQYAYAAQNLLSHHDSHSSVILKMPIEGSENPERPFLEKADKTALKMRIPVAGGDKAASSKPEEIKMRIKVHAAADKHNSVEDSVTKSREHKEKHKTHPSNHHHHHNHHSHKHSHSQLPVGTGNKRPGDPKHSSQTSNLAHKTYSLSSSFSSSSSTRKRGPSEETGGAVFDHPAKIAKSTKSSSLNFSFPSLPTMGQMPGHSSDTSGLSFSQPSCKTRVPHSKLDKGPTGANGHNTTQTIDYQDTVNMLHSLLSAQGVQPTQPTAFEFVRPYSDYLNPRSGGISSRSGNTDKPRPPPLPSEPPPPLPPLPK
Chain of HsPIM1 (P11309 whole entry): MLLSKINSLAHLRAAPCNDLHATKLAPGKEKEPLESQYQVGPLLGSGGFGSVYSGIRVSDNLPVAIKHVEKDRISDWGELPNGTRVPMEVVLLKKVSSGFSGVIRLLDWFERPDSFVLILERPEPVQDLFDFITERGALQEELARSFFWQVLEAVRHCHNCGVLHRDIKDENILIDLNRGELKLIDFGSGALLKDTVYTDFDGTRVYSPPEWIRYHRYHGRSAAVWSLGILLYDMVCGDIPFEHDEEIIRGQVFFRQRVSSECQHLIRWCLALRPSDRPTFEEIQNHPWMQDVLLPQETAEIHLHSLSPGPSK
Chain of HsGSK3β (P49841 whole entry): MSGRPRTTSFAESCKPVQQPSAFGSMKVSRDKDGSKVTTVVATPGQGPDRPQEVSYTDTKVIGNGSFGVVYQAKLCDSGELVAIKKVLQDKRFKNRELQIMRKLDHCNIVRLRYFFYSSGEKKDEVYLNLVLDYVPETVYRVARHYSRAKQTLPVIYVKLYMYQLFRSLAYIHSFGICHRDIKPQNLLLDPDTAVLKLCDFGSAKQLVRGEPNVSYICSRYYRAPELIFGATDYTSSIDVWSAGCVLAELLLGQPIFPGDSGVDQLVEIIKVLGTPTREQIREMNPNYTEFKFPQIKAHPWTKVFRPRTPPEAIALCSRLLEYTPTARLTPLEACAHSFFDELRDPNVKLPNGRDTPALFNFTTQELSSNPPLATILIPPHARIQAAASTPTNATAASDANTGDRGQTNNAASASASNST

As to `O=c1[nH]c2ccccc2c2c1[nH]c1ccccc12` [Compound 45, 5,7-Dihydro-6H-indolo[2,3-c]quinolin-6-one], the remaining activity in [1] was 61%. For the same compound, the remaining activity at 1 µM in series [2] stood at 67%; in [3] it was 44%; in [4], 100%; in series [5], 100%; in series [6], 86%; in [7], 63%. For the same compound, the remaining activity at 1 µM in [8] worked out at 100%.
Turning to `O=c1[nH]c2cc(O)ccc2c2c1[nH]c1ccccc12` [Compound 47, 3-Hydroxy-5,7-dihydro-6H-indolo[2,3-c]quinolin-6-one], the melting point was 238 to 240 °C (dec.). In addition, in series [1], the remaining activity worked out at 33%. For the same compound, the remaining activity at 1 µM in series [2] was found to be 22%. The remaining activity at 1 µM in [3] came to 28%. The remaining activity at 1 µM in series [4] worked out at 47%. Also, in series [5], the remaining activity at 1 µM was 59%. Also, the remaining activity at 1 µM in [6] worked out at 37%. In addition, the remaining activity at 1 µM in series [7] turned out to be 20%. For the same compound, the remaining activity at 1 µM in series [8] was 61%.
Take `COc1ccc2[nH]c3c(=O)[nH]c4cc(OC)c(OC)cc4c3c2c1` [Compound 52, 2,3,10-Trimethoxy-5,7-dihydro-6H-indolo[2,3-c]quinolin-6-one]: the melting point lay in the range of 205 to 208 °C. Also, in series [1], the “Selectivity index DYRK/Haspin” value came out at 15, the IC50 came to 242 nM and the remaining activity came to 5%. Further, in series [2], the remaining activity at 1 µM stood at 1%, the “Selectivity index CLK1/Haspin” value turned out to be 5 and the IC50 came to 78 nM. Besides, in [3], the remaining activity at 1 µM came to 2% and the half-maximal inhibitory concentration (IC50) came out at 16 nM. In addition, the remaining activity at 1 µM in [4] is 22%. Further, the remaining activity at 1 µM in series [5] is 63%. Besides, in [6], the remaining activity at 1 µM came out at 29%. In addition, the remaining activity at 1 µM in series [7] amounted to 37%. Further, the remaining activity at 1 µM in series [8] was 58%.
Compound `COc1ccc2[nH]c3c(=O)[nH]c4ccc(C(F)(F)F)cc4c3c2c1` [Compound 53, 10-Methoxy-2-(trifluoromethyl)-5,7-dihydro-6H-indolo[2,3-c]quinolin-6-one] displayed a melting point of 241 to 244 °C. Further, in series [1], the remaining activity is 36%. Moreover, the remaining activity at 1 µM in [2] is 11%. Besides, the remaining activity at 1 µM in series [3] was 33%. In series [4], the remaining activity at 1 µM turned out to be 63%. Also, the remaining activity at 1 µM in series [5] amounted to 56%. In addition, the remaining activity at 1 µM in series [6] turned out to be 31%. The remaining activity at 1 µM in [7] worked out at 56%. Besides, the remaining activity at 1 µM in series [8] came out at 76%.
`COc1ccc2[nH]c3c(=O)[nH]c4ccc(NC(C)=O)cc4c3c2c1` [Compound 57, N-(10-Methoxy-6-oxo-6,7-dihydro-5H-indolo[2,3-c]quinolin-2-yl)acetamide] showed a melting point of 242 to 245 °C. For the same compound, in series [1], the “Selectivity index DYRK/Haspin” value is on record as 8, the IC50 amounted to 280 nM and the remaining activity turned out to be 10%. In [2], the remaining activity at 1 µM was 2%, the “Selectivity index CLK1/Haspin” value is reported as 8 and the half-inhibitory concentration (IC50) is 259 nM. Moreover, in [3], the remaining activity at 1 µM amounted to 3% and the IC50 was found to be 34 nM. In addition, the remaining activity at 1 µM in series [4] is 58%. Further, in [5], the remaining activity at 1 µM came to 100%. The remaining activity at 1 µM in series [6] stood at 37%. In addition, the remaining activity at 1 µM in series [7] was determined as 72%. Besides, in series [8], the remaining activity at 1 µM is 100%.
Turning to `COc1ccc2c(c1)[nH]c1c(=O)[nH]c3ccccc3c12` [Compound 58, 9-Methoxy-5,7-dihydro-6H-indolo[2,3-c]quinolin-6-one], the melting point lay in the range of 235 to 237 °C. Besides, the remaining activity in series [1] is 55%. In [2], the remaining activity at 1 µM was determined as 49%. Besides, the remaining activity at 1 µM in [3] was found to be 59%. Further, the remaining activity at 1 µM in [4] stood at 51%. Further, the remaining activity at 1 µM in series [5] worked out at 55%. Moreover, the remaining activity at 1 µM in [6] came to 48%. Further, the remaining activity at 1 µM in series [7] was determined as 55%. For the same compound, in [8], the remaining activity at 1 µM came to 62%.
Consider `COc1ccc2c(c1)[nH]c1c(=O)[nH]c3ccc(OC)cc3c12` [Compound 59, 2,9-Dimethoxy-5,7-dihydro-6H-indolo[2,3-c]quinolin-6-one], for which the melting point lay in the range of 235 to 237 °C. Further, in series [1], the “Selectivity index DYRK/Haspin” value came out at 2, the half-maximal inhibitory concentration (IC50) was 73 nM and the remaining activity came to 21%. In series [2], the remaining activity at 1 µM was 12%, the “Selectivity index CLK1/Haspin” value came out at 3 and the half-inhibitory concentration (IC50) came out at 94 nM. In [3], the remaining activity at 1 µM was 13% and the 50% inhibitory concentration (IC50) amounted to 30 nM. Further, in [4], the remaining activity at 1 µM was determined as 41%. Also, the remaining activity at 1 µM in series [5] stood at 51%. Also, the remaining activity at 1 µM in series [6] turned out to be 34%. The remaining activity at 1 µM in series [7] was 41%. Also, the remaining activity at 1 µM in series [8] was 74%.
Compound `COc1ccc2[nH]c(=O)c3[nH]c4ccc(F)cc4c3c2c1` [Compound 60, 10-Fluoro-2-methoxy-5,7-dihydro-6H-indolo[2,3-c]quinolin-6-one] had a melting point of 135 to 136 °C. In series [1], the “Selectivity index DYRK/Haspin” value came out at 8, the 50% inhibitory concentration (IC50) stood at 143 nM and the remaining activity came out at 44%. In addition, in [2], the remaining activity at 1 µM came out at 31%, the “Selectivity index CLK1/Haspin” value stood at 6 and the IC50 worked out at 122 nM. For the same compound, in series [3], the remaining activity at 1 µM worked out at 9% and the IC50 was found to be 19 nM. Also, in series [4], the remaining activity at 1 µM came to 100%. In addition, the remaining activity at 1 µM in [5] was determined as 100%. Besides, the remaining activity at 1 µM in series [6] is 100%. Further, in series [7], the remaining activity at 1 µM stood at 100%. Moreover, the remaining activity at 1 µM in series [8] was determined as 97%.
Compound `COc1ccc2c(c1)c1c3cc(O)ccc3[nH]c(=O)c1n2C` [Compound 62, 2-Hydroxy-10-methoxy-7-methyl-5,7-dihydro-6H-indolo[2,3-c]quinolin-6-one] returned a melting point of over 250 °C. In series [1], the “Selectivity index DYRK/Haspin” value came out at 7, the IC50 stood at 131 nM and the remaining activity amounted to 2%. In series [2], the remaining activity at 1 µM was determined as 0%, the “Selectivity index CLK1/Haspin” value is given as 7 and the concentration for half-maximal inhibition (IC50) came to 124 nM. Also, in series [3], the remaining activity at 1 µM came to 0% and the half-maximal inhibitory concentration (IC50) was 18 nM. Further, the remaining activity at 1 µM in series [4] is 31%. In [5], the remaining activity at 1 µM came to 22%. The remaining activity at 1 µM in series [6] stood at 75%. In [7], the remaining activity at 1 µM was 6%. For the same compound, the remaining activity at 1 µM in series [8] came out at 31%.
On to `COc1ccc2c(c1)c1c3cc(C(F)(F)F)ccc3[nH]c(=O)c1n2C` [Compound 63, 10-Methoxy-7-methyl-2-(trifluoromethyl)-5,7-dihydro-6H-Indolo[2,3-c]quinolin-6-one], for which, in series [1], the remaining activity came out at 29%. In addition, the remaining activity at 1 µM in series [2] was determined as 19%; in series [3], 51%; in series [4] it was 44%; in series [5] it was 68%; in series [6] it was 42%; in series [7], 45%. In addition, the remaining activity at 1 µM in series [8] was determined as 67%.
